Values of other authors as cited in patent US20020013320A1, “Use of growth hormone secretagogues to treat systemic lupus erythematosus and inflammatory bowel disease” (priority 2000, published 2002).
Where a SMILES comes first, the peptide text is derived from it. [ ]: non-standard residue; d: D form. d2Nal = N[C@H](Cc1ccc2ccccc2c1)C(=O)O; Aib = CC(C)(N)C(=O)O

What was measured:
[1] = adult female rats
[2] = canines during remobilization
[3] = oral treatment, obese young males

Molecule | bone mass [1] | levels of serum insulin-like growth factor-1 [2] | size and strength of the quadriceps muscle [2] | markers of bone formation and bone resorption [3]
CC(C)(N)C(=O)N[C@@H](Cc1c[nH]cn1)C(=O)N[C@H](Cc1ccc2ccccc2c1)C(=O)N[C@H](Cc1ccccc1)C(=O)N[C@@H](CCCCN)C(N)=O [Ipamorelin] (H-[Aib]H[d2Nal][dF]K-NH2) | have the capacity to increase bone mass |  |  | 
CC(C)(N)C(=O)N[C@H](COCc1ccccc1)C(=O)N1CCC2(CC1)CN(S(C)(=O)=O)c1ccccc12 [MK-0677] |  | elevated | increased | increases
GHRP-6 | have the capacity to increase bone mass |  |  | 
